Results taken from ChEMBL document CHEMBL5346973 (J Med Chem, 2023).
Active and inactive are the calls of the source. No cut-off for these calls is given here. Where a SMILES comes first, the peptide text is derived from it.

Legend:
Assay type in all cases: cell-based
[1] = molecular target: Nicotinic acetylcholine receptor alpha9/alpha10 (Rattus norvegicus, UniProt P43144+Q9JLB5); experiment: Antagonist activity at rat alpha9alpha10 nACh receptor expressed in Xenopus oocyte assessed as inhibition of acetylcholine-induced response at -70 mV holding potential by voltage-clamp based electrophysiological assay
Chain of Nicotinic acetylcholine receptor alpha9/alpha10 (P43144 whole entry): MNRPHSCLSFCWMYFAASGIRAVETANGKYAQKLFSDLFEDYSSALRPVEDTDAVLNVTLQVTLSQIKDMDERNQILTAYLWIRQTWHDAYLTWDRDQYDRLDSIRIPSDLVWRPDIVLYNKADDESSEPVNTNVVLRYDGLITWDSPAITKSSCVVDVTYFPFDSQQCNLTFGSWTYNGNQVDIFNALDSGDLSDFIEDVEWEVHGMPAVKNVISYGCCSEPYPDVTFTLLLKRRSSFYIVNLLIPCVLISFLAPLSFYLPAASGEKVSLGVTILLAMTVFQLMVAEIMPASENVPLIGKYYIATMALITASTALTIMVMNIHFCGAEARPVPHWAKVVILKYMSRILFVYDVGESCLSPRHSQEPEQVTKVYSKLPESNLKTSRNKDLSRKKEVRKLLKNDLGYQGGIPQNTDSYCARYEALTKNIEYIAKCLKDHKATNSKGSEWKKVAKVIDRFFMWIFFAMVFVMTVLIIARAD
Chain of Nicotinic acetylcholine receptor alpha9/alpha10 (Q9JLB5 whole entry): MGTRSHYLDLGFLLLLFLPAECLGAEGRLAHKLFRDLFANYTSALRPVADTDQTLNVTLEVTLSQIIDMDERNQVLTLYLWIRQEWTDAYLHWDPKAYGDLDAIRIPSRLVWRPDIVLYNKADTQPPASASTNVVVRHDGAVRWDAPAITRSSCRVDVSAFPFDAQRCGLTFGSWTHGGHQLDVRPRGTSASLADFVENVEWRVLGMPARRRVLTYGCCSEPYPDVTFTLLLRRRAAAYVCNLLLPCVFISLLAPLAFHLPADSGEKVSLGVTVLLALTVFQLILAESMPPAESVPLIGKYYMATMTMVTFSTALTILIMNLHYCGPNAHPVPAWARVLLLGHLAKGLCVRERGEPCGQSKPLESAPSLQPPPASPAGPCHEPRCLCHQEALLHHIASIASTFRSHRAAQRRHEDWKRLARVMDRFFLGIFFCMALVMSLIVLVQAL

[2] = molecular target: Nicotinic acetylcholine receptor alpha9/alpha10 (Rattus norvegicus) (UniProt P43144+Q9JLB5); experiment: Antagonist activity at rat alpha9alpha10 nACh receptor expressed in Xenopus oocyte assessed as inhibition of acetylcholine-induced response at -70 mV holding potential at 10 uM measured after 5 mins by voltage-clamp based electrophysiological assay
[3] = molecular target: Neuronal acetylcholine receptor subunit alpha-7 (Rattus norvegicus, UniProt Q05941); experiment: Antagonist activity at rat alpha7 nACh receptor expressed in Xenopus oocyte assessed as inhibition of acetylcholine-induced response at -70 mV holding potential by voltage-clamp based electrophysiological assay
Chain of Neuronal acetylcholine receptor subunit alpha-7 (Q05941 whole entry): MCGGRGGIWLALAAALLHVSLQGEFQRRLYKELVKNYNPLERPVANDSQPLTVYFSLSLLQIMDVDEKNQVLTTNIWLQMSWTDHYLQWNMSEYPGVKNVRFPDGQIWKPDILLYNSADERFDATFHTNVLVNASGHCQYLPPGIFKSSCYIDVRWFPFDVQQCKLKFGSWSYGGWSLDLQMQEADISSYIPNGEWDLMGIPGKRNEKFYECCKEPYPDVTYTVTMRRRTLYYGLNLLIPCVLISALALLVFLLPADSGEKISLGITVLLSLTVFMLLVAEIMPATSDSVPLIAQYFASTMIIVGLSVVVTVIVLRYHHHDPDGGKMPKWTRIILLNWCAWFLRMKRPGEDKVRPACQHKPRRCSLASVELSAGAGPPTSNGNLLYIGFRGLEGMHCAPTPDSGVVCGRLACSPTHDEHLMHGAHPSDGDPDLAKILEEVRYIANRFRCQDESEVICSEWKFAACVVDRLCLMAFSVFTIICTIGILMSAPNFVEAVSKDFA

SMILES	IC50 [1] [nM]	Activity [2]	IC50 [3] [nM]
CC[C@H](C)[C@@H]1NC(=O)[C@H](CCCNC(=N)N)NC(=O)[C@H](CCCNC(=N)N)NC(=O)[C@@H](NC(=O)[C@H](Cc2ccc(O)cc2)NC(=O)[C@H](CCCNC(=N)N)NC(=O)[C@H](CCCNC(=N)N)NC(=O)[C@H](CCCNC(=N)N)NC(=O)[C@H](CCCNC(=N)N)NC(=O)[C@H](CC(=O)O)NC(=O)[C@H](Cc2ccc(O)cc2)NC(=O)[C@@H]2CCCN2C(=O)[C@H](CO)NC(=O)[C@H](C)NC(=O)[C@@H]2CSSC[C@H](NC(=O)[C@@H](N)[C@@H](C)O)C(=O)N[C@@H](C)C(=O)N[C@@H](CO)C(=O)N[C@@H](CO)C(=O)N[C@@H](C)C(=O)N[C@@H](CCCNC(=N)N)C(=O)N[C@@H](Cc3ccc(O)cc3)C(=O)N2)CSSC[C@@H](C(=O)N[C@H](C(=O)O)C(C)C)NC(=O)[C@H](C)NC(=O)[C@H](CC(=O)O)NC(=O)[C@H]([C@@H](C)O)NC1=O (HELM PEPTIDE1{T.C.A.S.S.A.R.Y.C.A.S.P.Y.D.R.R.R.R.Y.C.R.R.I.T.D.A.C.V}$PEPTIDE1,PEPTIDE1,2:R3-9:R3|PEPTIDE1,PEPTIDE1,20:R3-27:R3$$$V2.0)	> 10000	inactive	
CC[C@H](C)[C@@H]1NC(=O)[C@H](CCCNC(=N)N)NC(=O)[C@H](CCCNC(=N)N)NC(=O)[C@@H]2CSSC[C@H](NC(=O)[C@H](Cc3ccc(O)cc3)NC(=O)[C@H](CCCNC(=N)N)NC(=O)CNC(=O)[C@H](CO)NC(=O)[C@H](CO)NC(=O)[C@H](C)NC(=O)[C@@H](NC(=O)[C@@H](N)[C@@H](C)O)CSSC[C@@H](C(=O)N[C@H](C(=O)O)C(C)C)NC(=O)[C@H](C)NC(=O)[C@H](CC(=O)O)NC(=O)[C@H]([C@@H](C)O)NC1=O)C(=O)N[C@@H](CCCNC(=N)N)C(=O)N[C@@H](CO)C(=O)N1CCC[C@H]1C(=O)N[C@@H](Cc1ccc(O)cc1)C(=O)N[C@@H](CC(=O)O)C(=O)N[C@@H](CCCNC(=N)N)C(=O)N[C@@H](CCCNC(=N)N)C(=O)N[C@@H](CCCNC(=N)N)C(=O)N[C@@H](CCCNC(=N)N)C(=O)N[C@@H](Cc1ccc(O)cc1)C(=O)N2	37		9050
CC[C@H](C)[C@@H]1NC(=O)[C@H](C)NC(=O)[C@H](C)NC(=O)[C@@H](NC(=O)[C@H](Cc2ccc(O)cc2)NC(=O)[C@H](C)NC(=O)[C@H](C)NC(=O)[C@H](C)NC(=O)[C@H](C)NC(=O)[C@H](CC(=O)O)NC(=O)[C@H](Cc2ccc(O)cc2)NC(=O)[C@@H]2CCCN2C(=O)[C@H](CO)NC(=O)[C@H](C)NC(=O)[C@@H]2CSSC[C@H](NC(=O)[C@@H](N)[C@@H](C)O)C(=O)N[C@@H](C)C(=O)N[C@@H](CO)C(=O)N[C@@H](CO)C(=O)NCC(=O)N[C@@H](C)C(=O)N[C@@H](Cc3ccc(O)cc3)C(=O)N2)CSSC[C@@H](C(=O)N[C@H](C(=O)O)C(C)C)NC(=O)[C@H](C)NC(=O)[C@H](CC(=O)O)NC(=O)[C@H]([C@@H](C)O)NC1=O (HELM PEPTIDE1{T.C.A.S.S.G.A.Y.C.A.S.P.Y.D.A.A.A.A.Y.C.A.A.I.T.D.A.C.V}$PEPTIDE1,PEPTIDE1,2:R3-9:R3|PEPTIDE1,PEPTIDE1,20:R3-27:R3$$$V2.0)	> 10000	inactive	
CC[C@H](C)[C@H]1NC(=O)[C@H](CCCNC(=N)N)NC(=O)[C@H](CCCNC(=N)N)NC(=O)[C@@H](NC(=O)[C@H](Cc2ccc(O)cc2)NC(=O)[C@H](CCCNC(=N)N)NC(=O)[C@H](CCCNC(=N)N)NC(=O)[C@H](CCCNC(=N)N)NC(=O)[C@H](CCCNC(=N)N)NC(=O)[C@H](CC(=O)O)NC(=O)[C@H](Cc2ccc(O)cc2)NC(=O)[C@@H]2CCCN2C(=O)[C@H](CO)NC(=O)[C@H](CCCNC(=N)N)NC(=O)[C@@H]2CSSC[C@H](NC(=O)[C@@H](N)[C@@H](C)O)C(=O)N[C@@H](C)C(=O)N[C@@H](CO)C(=O)N[C@@H](CO)C(=O)NCC(=O)N[C@@H](CCCNC(=N)N)C(=O)N[C@@H](Cc3ccc(O)cc3)C(=O)N2)CSSC[C@@H](C(=O)N[C@H](C(=O)O)C(C)C)NC(=O)[C@H](C)NC(=O)[C@H](CC(=O)O)NC(=O)[C@H]([C@@H](C)O)NC1=O	74		1130
CC[C@H](C)[C@@H]1NC(=O)[C@H](CCCNC(=N)N)NC(=O)[C@H](CCCNC(=N)N)NC(=O)[C@@H](NC(=O)[C@H](Cc2ccc(O)cc2)NC(=O)[C@H](C)NC(=O)[C@H](C)NC(=O)[C@H](C)NC(=O)[C@H](C)NC(=O)[C@H](CC(=O)O)NC(=O)[C@H](Cc2ccc(O)cc2)NC(=O)[C@@H]2CCCN2C(=O)[C@H](CO)NC(=O)[C@H](CCCNC(=N)N)NC(=O)[C@@H]2CSSC[C@H](NC(=O)[C@@H](N)[C@@H](C)O)C(=O)N[C@@H](CCCNC(=N)N)C(=O)N[C@@H](CO)C(=O)N[C@@H](CCCNC(=N)N)C(=O)NCC(=O)N[C@@H](CCCNC(=N)N)C(=O)N[C@@H](Cc3ccc(O)cc3)C(=O)N2)CSSC[C@@H](C(=O)N[C@H](C(=O)O)C(C)C)NC(=O)[C@H](C)NC(=O)[C@H](CC(=O)O)NC(=O)[C@H]([C@@H](C)O)NC1=O (HELM PEPTIDE1{T.C.R.S.R.G.R.Y.C.R.S.P.Y.D.A.A.A.A.Y.C.R.R.I.T.D.A.C.V}$PEPTIDE1,PEPTIDE1,2:R3-9:R3|PEPTIDE1,PEPTIDE1,20:R3-27:R3$$$V2.0)	> 10000	inactive	
